Experimental data as given in EP4474016A1, “STRATEGIES TO TARGET EXTRACELLULARLY ACCESSIBLE RAS PROTEIN” (Julius-Maximilians-Universität Würzburg, priority 2023, dated 2024).

Experiments:
[1] = test system: human acute monocytic leukemia cell line MV4-11; test: in vitro killing assay of anti-Ras bispecific antibody alone or in combination with DMSO (luciferase read-out); assay type: cell-based; conditions: alone, read-out: viability drop of MV4-11 cells
Protocol: (§1) The anti-Ras bispecific antibody constructs SFV02_PCC06 (SEQ ID No 75 + 76) was tested in cell culture against the human Multiple Myeloma cell lines MM.1S and the human acute monocytic leukemia cell line MV4-11. The MM. 1S and MV4-11 cells are luziferase positive and were seeded into 96-well cell culture plates (for each cell line 7500 cells in 50 µL per well in 150 µL medium) in the corresponding medium (Table 1) and incubated at 37°C and 5% CO2 for 24 hours. The next day, fresh human CD3+/CD8+ T-cells were added to each well, for a final tumour cell to T cells ratio of 1 to 5. Two dilution series were prepared of the SFV02_PCC06 antibody: (i) A final concentration of 25 nM, 12.5 nM, 6.25 nM and 3.125 nM (Figure 15), and (ii) a final concentration of 15 nM, 7.5 nM, 3.75 nM, 1.87 nM, 0.93 nM, 0.46 nM, 0.23 nM and 0.11 nM (Figure 16). From the antibody dilution series, 20 µL was added to each respective well.
(§2) To test if chemical compounds can improve and/or increase the bi-specific anti Ras antibody directed killing of tumours cells, two compounds were tested. […] Afterwards, the bioluminescence of the firefly-luciferase was measured, using a Tecan Spark plate reader (with an absorbance scan from 350 nm to 700 nm with an integration time interval of 1000 ms).

[2] = test system: aberrant expressed Ras on the cell surface; test: cell-based ELISA of aberrant Ras protein on the cell surface under normal and stress conditions; design: species or system human; conditions: versus complete medium; for aberrant Ras expression on the cell surface: Lenalidomide 1.5µM overnight
Protocol: For the cell-based ELISA, different adherent cell lines (AsPC-1, Panc-1, SK-BR-3 and BT-474) were used. First, the cell culture medium was removed, and the cells were washed one time with PBS. After washing, 2 ml of […] Trypsin-EDTA (Gibco, #25300054) was added to trypsinise the cells for 3 min at 37°C. Then, 13 ml of complete medium (Table 1) was added to stop the trypsinisation process. Cell numbers were count via Trypan Blue staining and 30.000 viable cells in 50 µl were seeded out per well, in a 96-well tissue culture plate at 37°C and 5% CO2. After overnight adhesion of the cells, three different mechanisms to induce cellular stress on the tumour cells were tested: (i) addition of 0,5% DMSO in the cell culture medium, (ii) adding 1,5 µM Lenalidomide in the cell culture medium, (iii) or replacement of the complete medium by cell culture medium without supplemented FBS for serum-starvation. As normal control, for cells not under additional cellular stress, cells were left in complete medium. The stress-induction was performed overnight at 37°C and 5% CO2. The next day, to reduce unspecific binding of detection antibody to the plastic of the cell culture plate, each well was filled up to the top with 50% FBS in PBS, carefully pipette on top of the incubation medium, and incubated for 30 minutes at 37°C. Then, the all medium was discarded from the wells and 50 µl of 1:100-diluted FcR Blocking Reagent (MACS Miltenyi #130-059-901) was added to each well to avoid unspecific binding by blocking of the Fc-Receptors on the tumour cells. […]
The HRP-reaction was stopped after sufficient colour development by adding 50 µl of stop solution (1 N Sulfuric Acid) to each well. Finally, the absorbance was measured in each well at a wavelength of 450 nm and a reference wavelength of 630 nm with a Tecan SPARK® multimode-mikroplate-reader. The absorbance values from the unspecific HRP-labelled control samples (samples without primary antibody but with corresponding HRP labelled secondary antibody), were used for the zero baseline model and set at 0 (Figure 19 and 20).

[3] = test system: human Multiple Myeloma cell lines MM.1S; test: in vitro killing assay of anti-Ras bispecific antibody alone or in combination with Lenalidomide (luciferase read-out); assay type: cell-based; conditions: MM1.S, Lenalidomide 1.5 µM alone, compared to the cells without Lenalidomide
Protocol: as §1, §2

C[S+](C)[O-] [DMSO, Dimethyl Sulfoxide]
viability drop at 70.4 µM [1]: 30% | aberrant Ras protein on the cell surface ([2]; the four solid tumour cells (AsPC-1, Panc-1, MS-18, SK-BR-3), DMSO 0.5% (v/v)): down-regulating

Nc1cccc2c1CN(C1CCC(=O)NC1=O)C2=O (centres unmarked) [Lenalidomide]
percent drop in cell viability at 1.5 µM [3]: 25% | aberrant Ras expression on the cell surface ([2]; AsPc-1 cells): up-regulating | aberrant Ras expression on the cell surface ([2]; SK-BR-3 cells): up-regulating
